Ends that are not written are not given here. Peptide text beside a SMILES is read from it.
Each molecule was assayed on 293T-ACE2^+ cells (assay: Cytotoxicity by CCK-8 in 293T-ACE2^+ cells). Details: 1 nM to 100 μM, 48 h; FIGS. 9A-9C, 10A-10C.
Format: cell-based, human
Procedure: ; • (3) The cells were washed once with PBS after discarding supernatant after culturing, 120 μL of cell counting kit-8 (CCK-8) working solution (CCK-8 working solution is obtained by mixing CCK8 stock solution and complete medium in a volume ratio of 1:10, CCK8 stock solution was purchased from Dojindo Molecular Technologies) was added to each well. After mixing, the system was incubated at 37° C. for 3 h, then the absorbance values at 450 nm and 630 nm (reference wavelength) were detected to calculate the cell viability.

Molecule	effect on 293T-ACE2^+ cells viability (CCK-8)
CC(C)C[C@H](NC(=O)[C@@H](NC(=O)[C@H](CO)NC(=O)[C@H](CO)NC(=O)[C@H](CC(=O)O)NC(=O)[C@H](Cc1ccccc1)NC(=O)[C@@H](NC(=O)[C@H](CC(=O)O)NC(=O)[C@H](CCCNC(=N)N)NC(=O)[C@@H]1CCCN1C(=O)[C@H](Cc1ccc(O)cc1)NC(=O)[C@H](Cc1ccc(O)cc1)NC(=O)[C@@H](NC(=O)CNC(=O)[C@H](CC(=O)O)NC(=O)CNC(=O)[C@@H]1CCCN1C(=O)[C@@H]1CCCN1C(=O)[C@@H]1CCCN1C(=O)[C@@H]1CCCN1C(=O)[C@H](CS)NC(=O)[C@@H](N)CS)C(C)C)C(C)C)C(C)C)C(=O)N[C@@H](CC(=O)O)C(=O)N[C@@H](CO)C(=O)N[C@H](C(=O)N[C@@H](CCC(N)=O)C(=O)N[C@@H](CCCNC(=N)N)C(=O)O)[C@@H](C)O [KVp-N1] (H-CCPPPPGDGVYYPRDVFDSSVLDSTQR-OH)	not significant
CC[C@H](C)[C@H](NC(=O)[C@H](CCCNC(=N)N)NC(=O)[C@H](CC(=O)O)NC(=O)[C@H](CCCNC(=N)N)NC(=O)[C@H](Cc1ccccc1)NC(=O)[C@@H]1CCCN1C(=O)[C@H](CC(=O)O)NC(=O)[C@H](CC(C)C)NC(=O)[C@H](CC(N)=O)NC(=O)[C@H](CO)NC(=O)[C@H](CC(=O)O)NC(=O)[C@H](CC(=O)O)NC(=O)[C@H](Cc1ccccc1)NC(=O)[C@H](CC(C)C)NC(=O)[C@H](CC(=O)O)NC(=O)CNC(=O)[C@@H]1CCCN1C(=O)[C@@H]1CCCN1C(=O)[C@@H]1CCCN1C(=O)[C@@H]1CCCN1C(=O)[C@H](CS)NC(=O)[C@@H](N)CS)C(=O)N[C@@H](CO)C(=O)N[C@H](C(=O)N[C@@H](CCCNC(=N)N)C(=O)N[C@@H](CCCNC(=N)N)C(=O)O)[C@@H](C)O [KVp-R14] (H-CCPPPPGDLFDDSNLDPFRDRISTRR-OH)	not significant
GDGVYYPRDVFDSSVLDSTQR [KVp-N1N]	not significant
GDLFDDSNLDPFRDRISTRR [KVp-R14N]	not significant

What follows are molecules tested against spike protein of the SARS-CoV-2 pseudovirus (PSV) (SARS-CoV-2), P0DTC2 (assay: cell-based or functional assay). Details: not given.

Molecule	neutralization ability to SARS-CoV-2 pseudovirus [%]
CCPPPPGDLFDDSNLDPFRDRISTRR (modifications not checked) [polypeptide KVp-R14]	50
CCPPPPGDGVYYPRDVFDSSVLDSTQR (modifications not checked) [polypeptide KVp-N1]	50

Reference: US20260234196A1 (priority 2021, published 2026)
